Results as given in patent publication US6008251A, “Retinoid-like compounds” (Bristol-Myers Squibb Company, priority 1998, dated 1999).

Tests used:
HL60 cells = test: Differentiation and apoptosis of HL 60 cells (NBT staining); type: cell-based; details: for EC50 (culture day necessary to convert cells into a differentiated or apoptosed phenotype): 1 μM compound, culture up to 9 days, NBT staining
Procedure: HL 60 cells were evaluated for the effect of retinoic acid and the compound of Example 1 on both differentiation and apoptosis end points by the method described in Molecular and Cellular Biology, 15, 3540-3551 (1995). Cells were grown in culture for times up to 9 days in the presence of 1 μM all-trans retinoic acid (t-RA) or 1 μM compound of Example 1. At the end of each day of the culture period, cells were washed and stained with NBT (nitro blue tetrazolium) and counted.

[1] = system: squamous-cell carcinoma of the head and neck; details: cited from earlier work

| Compound | EC50 (culture day necessary to convert cells into a differentiated or apoptosed phenotype) (HL60 cells) [days] | activity in this assay compared with t-RA (in words) (HL60 cells; 1 μM, compared with 1 μM t-RA) | percentage of either differentiated or apoptosed HL60 cells (HL60 cells; 1 μM, day 1) [%] | percentage of either differentiated or apoptosed HL60 cells (HL60 cells; 1 μM, day 2) [%] | percentage of either differentiated or apoptosed HL60 cells (HL60 cells; 1 μM, day 3) [%] | percentage of either differentiated or apoptosed HL60 cells (HL60 cells; 1 μM, day 4) [%] | percentage of either differentiated or apoptosed HL60 cells (HL60 cells; 1 μM, day 5) [%] | percentage of either differentiated or apoptosed HL60 cells (HL60 cells; 1 μM, day 6) [%] | percentage of either differentiated or apoptosed HL60 cells (HL60 cells; 1 μM, day 7) [%] | percentage of either differentiated or apoptosed HL60 cells (HL60 cells; 1 μM, day 8) [%] | percentage of either differentiated or apoptosed HL60 cells (HL60 cells; 1 μM, day 9) [%] | prevention of second primary tumors (in words) [1] |
| --- | --- | --- | --- | --- | --- | --- | --- | --- | --- | --- | --- | --- |
| CC1(C)C(=O)C(C)(C)c2cc(C(=O)Nc3ccc(C(=O)O)cc3)ccc21 [Example 1, 4(1',1',3',3'-Tetramethyl-2'-keto-indan-5'-carboxamido)benzoicacid] | 4.0 | comparable to t-RA | 11 | 22 | 40 | 50 | 61 | 78 | 85 | 95 | 93 |  |
| CC1=C(/C=C/C(C)=C/C=C/C(C)=C\C(=O)O)C(C)(C)CCC1 [Isotretinoin] |  |  |  |  |  |  |  |  |  |  |  | useful in prevention of second primary tumors |
| CC1=C(/C=C/C(C)=C/C=C/C(C)=C/C(=O)O)C(C)(C)CCC1 [all-trans retinoic acid] | 3.2 |  | 21 | 23 | 48 | 80 | 95 | 96 | 97 | 98 | 97 |  |
